Source: patent US6423689B1, “Peptidyl calcium channel blockers” (Warner-Lambert Company, priority 1997, dated 2002)
pIC50: −log10 of the molar value. Like-named read-outs stand apart in the source and are kept apart here.

Experiments:
[1] = target: T1, N-type Ca2+ channels in IMR-32 cells (Homo sapiens, UniProt Q00975); test: Inhibition of N-type calcium flux in IMR-32 cells (Indo-1 fluorescence, nitrendipine present); format: cell-based; details: for inhibition at 1 µM / inhibition at 10 µM: IMR-32; for pIC50: IMR-32 cells, 5 μM nitrendipine, K+ depolarization
T1 construct: host or cells: IMR-32 cells, differentiated with dibutyryl cAMP and bromodeoxyuridine
Method in brief: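 Differentiated IMR-32 cells (7–13 days) were loaded with 5 μM Indo-1 AM, preincubated with compound for 10 min at 30° C, and depolarized with KCl/CaCl2 stimulation solution, with 5 μM nitrendipine blocking L-channels. Peak-minus-basal 400/490 nm emission ratio was plotted against drug concentration, and IC50 came from four-parameter logistic fits.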

[2] = tested on: K+ channels in superior cervical ganglion (SCG) neurons; test: Whole-cell voltage clamp, K+ current in SCG neurons; format: cell-based, rat; details: 10 μM
Method in brief: (§1)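 Acutely dissociated (trypsin) SCG neurons under whole-cell voltage clamp, external NaCl/KCl/HEPES buffer pH 7.4, K-gluconate/KCl pipette. From holding potential −65 to −55 mV, 35 msec steps every 10 sec to 0 mV (peak Na+ current) or +50 mV (sustained K+ current); compounds perfused locally to steady-state block, reported as percent inhibition of control.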

[3] = tested on: Na+ channels in superior cervical ganglion (SCG) neurons; test: Whole-cell voltage clamp, Na+ current in SCG neurons; format: cell-based, rat; details: 10 μM
Method in brief: as §1

DBA/2 mice = test: animal or person; format: in vivo; details: for responders at 30 mg/kg: Mus musculus, iv, read-out: Number of Mice Protected from Tonic Convulsions
Procedure: Audiogenic Seizure Model in DBA/2 Mice
In Vivo Biological Protocol
A compound of the present invention was dissolved in water using 10% (weight/volume) Emulphor (GAF Cop., Wayne N.J. surfactant. Substances were administered by intravenous injection the retro-orbital venous sinus. […] All the male mice, 3-4 weeks old were obtained from Jackson Laboratories Bar Harbour, Me. Immediately before anticonvulsant testing, mice were placed upon a wire mesh, 4 inches square suspended from a steel rod. The square was slowly inverted through 180 degree and mice observed for 30 seconds. Any mouse falling from the wire mesh was scored as ataxia.
Mice were placed into an enclosed acrylic plastic chamber (21 cm in height, approximately 30 cm diameter) with a high-frequency speaker (4 cm diameter) in the center of the top lid. An audio signal generator (Protek model B-810) was used to produce a continuous sinusoidal tone that was swept linearly in frequency between 8 kHz and 16 kHz once each 10 msec. The average sound pressure level (SPL) during stimulation was approximately 100 dB at the floor of the chamber. Mice were placed within the chamber and allowed to acclimatize for 1 minute. DBA/2 mice in the vehicle-treated group responded to the sound stimulus (applied until tonic extension occurred, or for a maximum of 60 sec) with a characteristic seizure sequence consisting of wild running followed by clonic seizures, and later by tonic extension, and finally by respiratory arrest and death in 80% or more of the mice. In vehicle-treated mice, the entire sequence of seizures to respiratory arrest lasts approximately 15-20 seconds.
The incidence of all the seizure phases in the drug-treated and vehicle-treated mice was recorded, and the occurrence of tonic seizures were used for calculating anticonvulsant ED50 values by probit analysis. Mice were used only once for testing at each time and dose point.

[4] = target: T2, L-type Ca2+ channels in A10 cells (Rattus norvegicus, UniProt P22002); test: Inhibition of L-type calcium flux in A10 cells (FLIPR); format: cell-based
T2 construct: which endogenously expresses L-type calcium channels; host or cells: A10 rat aortic smooth muscle cells
T2 sequence (P22002 whole entry): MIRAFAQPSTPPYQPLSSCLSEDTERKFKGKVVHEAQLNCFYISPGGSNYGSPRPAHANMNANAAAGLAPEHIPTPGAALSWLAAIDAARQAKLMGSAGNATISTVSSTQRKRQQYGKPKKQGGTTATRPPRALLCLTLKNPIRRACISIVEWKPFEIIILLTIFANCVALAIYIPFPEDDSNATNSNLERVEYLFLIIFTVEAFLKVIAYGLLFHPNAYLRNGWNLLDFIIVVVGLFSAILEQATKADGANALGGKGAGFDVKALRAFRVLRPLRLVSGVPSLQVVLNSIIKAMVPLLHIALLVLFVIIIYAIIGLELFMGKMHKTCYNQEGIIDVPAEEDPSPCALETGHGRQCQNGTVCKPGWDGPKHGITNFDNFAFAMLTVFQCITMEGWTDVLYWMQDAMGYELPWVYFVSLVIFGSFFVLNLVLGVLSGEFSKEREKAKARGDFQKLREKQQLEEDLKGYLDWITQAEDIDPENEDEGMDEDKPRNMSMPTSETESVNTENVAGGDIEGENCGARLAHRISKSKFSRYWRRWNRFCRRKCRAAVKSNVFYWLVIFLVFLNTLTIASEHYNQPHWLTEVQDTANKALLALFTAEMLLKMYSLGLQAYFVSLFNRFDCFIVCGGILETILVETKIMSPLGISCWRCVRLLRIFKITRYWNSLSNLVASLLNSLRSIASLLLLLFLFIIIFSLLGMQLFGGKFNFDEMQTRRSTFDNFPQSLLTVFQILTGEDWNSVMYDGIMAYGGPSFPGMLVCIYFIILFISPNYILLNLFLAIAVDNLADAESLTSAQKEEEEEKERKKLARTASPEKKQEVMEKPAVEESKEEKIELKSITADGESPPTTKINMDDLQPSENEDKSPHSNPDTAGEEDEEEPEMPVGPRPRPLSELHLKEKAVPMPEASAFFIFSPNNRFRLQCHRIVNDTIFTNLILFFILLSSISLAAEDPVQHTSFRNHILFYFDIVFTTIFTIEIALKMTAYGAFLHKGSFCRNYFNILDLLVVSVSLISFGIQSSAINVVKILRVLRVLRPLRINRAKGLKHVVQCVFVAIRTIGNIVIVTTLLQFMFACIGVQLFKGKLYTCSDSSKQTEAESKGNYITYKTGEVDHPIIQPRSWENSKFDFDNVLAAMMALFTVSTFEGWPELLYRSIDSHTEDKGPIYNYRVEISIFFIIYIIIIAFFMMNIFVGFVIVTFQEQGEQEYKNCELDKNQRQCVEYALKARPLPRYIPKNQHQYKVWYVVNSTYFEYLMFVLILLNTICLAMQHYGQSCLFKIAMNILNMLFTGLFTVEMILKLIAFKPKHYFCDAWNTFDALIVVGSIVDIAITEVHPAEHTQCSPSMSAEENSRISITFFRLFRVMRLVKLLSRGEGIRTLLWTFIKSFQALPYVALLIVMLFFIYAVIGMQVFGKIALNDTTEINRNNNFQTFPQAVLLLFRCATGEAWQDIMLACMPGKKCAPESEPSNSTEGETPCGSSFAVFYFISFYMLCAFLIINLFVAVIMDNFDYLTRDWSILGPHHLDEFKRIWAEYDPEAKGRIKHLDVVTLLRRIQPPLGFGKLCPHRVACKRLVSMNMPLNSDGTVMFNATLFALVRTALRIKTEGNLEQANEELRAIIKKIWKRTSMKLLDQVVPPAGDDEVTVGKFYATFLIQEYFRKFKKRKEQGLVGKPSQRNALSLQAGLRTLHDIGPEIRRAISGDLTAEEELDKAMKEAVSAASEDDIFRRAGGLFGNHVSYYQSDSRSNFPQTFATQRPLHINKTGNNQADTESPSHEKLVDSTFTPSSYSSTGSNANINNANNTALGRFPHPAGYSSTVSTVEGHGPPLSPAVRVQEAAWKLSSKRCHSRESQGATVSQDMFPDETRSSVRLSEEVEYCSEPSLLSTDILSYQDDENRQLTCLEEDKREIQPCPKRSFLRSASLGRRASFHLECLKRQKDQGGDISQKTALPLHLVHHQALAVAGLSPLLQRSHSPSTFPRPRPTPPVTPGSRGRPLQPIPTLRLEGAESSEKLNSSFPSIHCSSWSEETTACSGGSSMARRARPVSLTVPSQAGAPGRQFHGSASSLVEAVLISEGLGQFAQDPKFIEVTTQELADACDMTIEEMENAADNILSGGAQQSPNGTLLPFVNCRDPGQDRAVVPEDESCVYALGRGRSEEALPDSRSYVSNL
T2 sequence (P54290 25-944 partner limits assumed): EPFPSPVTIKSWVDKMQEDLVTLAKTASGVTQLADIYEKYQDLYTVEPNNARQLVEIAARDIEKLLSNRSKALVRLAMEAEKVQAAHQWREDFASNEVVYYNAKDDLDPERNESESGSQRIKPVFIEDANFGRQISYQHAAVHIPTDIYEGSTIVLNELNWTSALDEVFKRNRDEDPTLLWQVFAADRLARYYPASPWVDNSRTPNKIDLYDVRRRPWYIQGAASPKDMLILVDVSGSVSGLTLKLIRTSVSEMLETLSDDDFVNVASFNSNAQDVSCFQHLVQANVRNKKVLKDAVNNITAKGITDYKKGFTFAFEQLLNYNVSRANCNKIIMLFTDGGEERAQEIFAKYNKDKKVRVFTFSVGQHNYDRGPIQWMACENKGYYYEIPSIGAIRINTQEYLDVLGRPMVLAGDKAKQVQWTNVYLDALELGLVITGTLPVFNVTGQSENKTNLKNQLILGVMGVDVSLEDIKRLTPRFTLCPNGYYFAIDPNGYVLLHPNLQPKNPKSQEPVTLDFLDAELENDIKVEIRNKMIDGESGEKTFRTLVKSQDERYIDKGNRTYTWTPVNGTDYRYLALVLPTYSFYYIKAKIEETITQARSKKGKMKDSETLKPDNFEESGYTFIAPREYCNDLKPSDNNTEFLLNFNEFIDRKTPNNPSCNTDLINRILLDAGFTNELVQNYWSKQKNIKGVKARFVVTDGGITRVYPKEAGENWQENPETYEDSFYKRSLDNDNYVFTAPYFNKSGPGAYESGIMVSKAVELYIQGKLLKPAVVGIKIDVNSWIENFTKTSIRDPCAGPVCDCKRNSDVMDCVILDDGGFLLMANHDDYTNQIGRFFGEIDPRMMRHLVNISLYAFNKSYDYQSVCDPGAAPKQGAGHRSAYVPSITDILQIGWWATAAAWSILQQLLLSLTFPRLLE
T2 sequence (P54290 945-1091 partner limits assumed): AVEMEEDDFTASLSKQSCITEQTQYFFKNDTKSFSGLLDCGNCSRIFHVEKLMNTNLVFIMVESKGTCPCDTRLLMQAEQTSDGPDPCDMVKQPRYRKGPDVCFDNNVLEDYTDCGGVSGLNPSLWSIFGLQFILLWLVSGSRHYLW
T2 sequence (P54287 whole entry partner): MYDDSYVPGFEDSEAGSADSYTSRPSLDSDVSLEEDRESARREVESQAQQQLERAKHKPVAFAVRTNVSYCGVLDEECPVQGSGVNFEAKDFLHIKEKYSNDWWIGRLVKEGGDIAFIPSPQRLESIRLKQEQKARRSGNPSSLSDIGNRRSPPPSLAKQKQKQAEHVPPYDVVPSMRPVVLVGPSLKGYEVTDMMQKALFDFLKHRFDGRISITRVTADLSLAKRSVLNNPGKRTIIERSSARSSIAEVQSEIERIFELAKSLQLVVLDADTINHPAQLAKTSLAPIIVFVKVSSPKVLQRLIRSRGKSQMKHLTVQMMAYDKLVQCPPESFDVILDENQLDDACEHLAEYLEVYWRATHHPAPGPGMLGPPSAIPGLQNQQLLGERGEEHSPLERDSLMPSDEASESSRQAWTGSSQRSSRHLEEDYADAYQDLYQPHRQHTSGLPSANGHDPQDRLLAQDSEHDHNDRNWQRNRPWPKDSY
Procedure: Measurement of L-type Ca^2+ Channel Blocking Potencies of Compounds in A10 cells
Calcium flux through voltage-sensitive calcium channels was assessed by time-resolved monitoring of the fluorescence of pre-loaded calcium-sensitive dyes using FLIPR, a fluorescent image plate reader (Molecular Devices Co.). The A10 smooth muscle cell line derived from embryonic thoracic aorta of the DBIX rat (ATCC, CRL-1476) which endogenously expresses L-type calcium channels. The growth media for A10 cells was Ham's F12/DME high glucose (Irvine Scientific, 9052), supplemented with 20% fetal bovine serum (HyClone Labs, A-1115-L), and 1% each of L-glutamine and antibiotic-antimycotic (same source as above).
Cells were grown to confluency and replated on black-sided 96-well plates (Costar, 3603) for use in FLIPR. Two days after replating, growth media was removed and cells were loaded at 37° C. with 100 μL media containing 1 μM Oregon Green 488 Bapta-1 dye (Molecular Probes, O-6807) for 1 to 3 hours. The dye-containing media was then washed away with buffer (composition in mM: 1.25 CaCl2, 1.2 MgSO4, 11 glucose, 10 HEPES, 3.0 KCl, 137.0 NaCl, pH 7.4 with Tris base) in a Denley Cellwash (Labsystems, CW018B). The residual buffer volume was adjusted to 50 μL. A 5 minute drug-pre-incubation period at 35° C. was initiated when 50 μL of drug-containing buffer was pipetted into the cell plate with the 96-well pipettor integrated in the FLIPR apparatus. Fluorescent counts were monitored at 20 second intervals for 360 seconds, beginning 60 seconds prior to the delivery of drug-containing buffer. Following drug addition, 100 μL aliquots of a high K^+, depolarizing stimulus (composition in mM: 1.25 CaCl2, 1.2 MgSO4, 11 glucose, 10 HEPES, 140.0 KCl, pH 7.4 with Tris base) were added to each well and fluorescence was monitored at 1 second intervals for 120 seconds, beginning 10 seconds prior to the stimulus addition. CCD camera exposure time was 0.4 seconds, laser excitation was at 488 nm with a power of 0.2-0.5W, and a 510 to 560 nm bandpass interference filter preceded the camera.
Data was analyzed as a summation of fluorescent counts above basal during the stimulation period (an approximation of area under the curve), after normalizing the data with a spatial uniformity correction (for variations in laser illumination and cell density) and a negative control correction (zero calcium increase defined as the fluorescence reading in the presence of saturating pharmacologic block of the respective calcium channel). Drug effects were expressed as percent inhibition of fluorescence from an average of 8 K^+-stimulated wells which were pre-treated in the drug incubation period with buffer only.
In the A10 cells, the pharmacologic agent used to define zero calcium influx was nitrendipine (RBI, N-144), at a final concentration of 1.0×10^−6 M.

[5] = 30 mg/Kg iv, 15 min post treatment
[6] = 30 mg/Kg iv, 45 min post treatment

Compound: CC(C)CC(NC(=O)N1CCCCCC1)C(=O)NC(Cc1ccc(OCc2ccccc2)cc1)C(=O)NC(CO)C(C)C (stereo not shown) [Example 253, Azepane-1-carboxylic acid {1-[2-(4-benzyloxy-phenyl)-1-(1-hydroxymethyl-2-methyl-propylcarbamoyl)-ethylcarbamoyl]-3-methyl-butyl}-amide]
- inhibition at 1 µM [1]: 60%
- inhibition at 10 µM [1]: 93%
- pIC50 [1]: 5.96
- Inhibition of K+ Current, % Inhibition at 10 μM [2]: 62%
- Inhibition of Na+ Current, % Inhibition at 10 μM [3]: 5%
- responders at 30 mg/kg (DBA/2 mice; 0.25 h): 0%

Compound: CC(C)C[C@H](NC(=O)N1CCCCCC1)C(=O)N[C@@H](Cc1ccc(OCc2ccccc2)cc1)C(=O)NC(CO)CO (relative stereo) [Example 257, [S-(R*,R*)]-Azepane-1-carboxylic acid {1-[2-(4-benzyloxy-phenyl)-1-(2-hydroxy-1-hydroxymethyl-ethylcarbamoyl)-ethylcarbamoyl]-3-methyl-butyl}-amide]
- Inhibition of Calcium Flux in IMR-32 Cells % Inhibition at 1 μM [1]: 42%
- Inhibition of Calcium Flux in IMR-32 Cells % Inhibition at 10 μM [1]: 90%
- pIC50 [1]: 5.85
- Inhibition of K+ Current, % Inhibition at 10 μM [2]: 43%
- Inhibition of Na+ Current, % Inhibition at 10 μM [3]: 5%
- Dead mice (remark beside the protection count) (DBA/2 mice; [5]): (1 dead)
- Number of Mice Protected from Tonic Convulsions (DBA/2 mice; [5]): 3/4
- Dead mice (remark beside the protection count) (DBA/2 mice; [6]): 2 (dead)
- Number of Mice Protected from Tonic Convulsions (DBA/2 mice; [6]): 3/3

Compound: CC(C)C[C@H](NC(=O)N1CCCCCC1)C(=O)N[C@@H](Cc1ccc(OCc2ccccc2)cc1)C(=O)NCCc1ccccn1 [Example 231]
- inhibition at 1 µM [1]: 55%
- inhibition at 10 µM [1]: 95%
- pIC50 [1]: 5.95
- pIC50 [4]: 6.17
- responders at 30 mg/kg (DBA/2 mice; 0.25 h): 0%

Compound: CC(C)C[C@H](NC(=O)N1CCCCCC1)C(=O)N[C@@H](Cc1ccc(OCc2ccccc2)cc1)C(=O)NCCN1CCCCC1 [Example 171, [S-(R*,R*)]-Azepane-1-carboxylic acid {1-[2-(4-benzyloxy-phenyl)-1-(2-piperidin-1-yl-ethylcarbamoyl)-ethylcarbamoyl]-3-methyl-butyl}-amide]
- inhibition at 1 µM [1]: 62%
- pIC50 [1]: 6.34
- pIC50 [4]: 6.57
- responders at 30 mg/kg (DBA/2 mice; 0.75 h): 0%

Compound: CC(C)C[C@H](NC(=O)N1CCCCCC1)C(=O)N[C@@H](Cc1ccc(OCc2ccccc2)cc1)C(=O)N1CCSCC1 [Example 221, [S-(R*,R*)]-Azepane-1-carboxylic acid {1-[1-(4-benzyloxy-benzyl)-2-thiomorpholin-4-yl-2-oxo-ethylcarbamoyl]-3-methyl-butyl}-amide]
- inhibition at 1 µM [1]: 65%
- inhibition at 10 µM [1]: 93%
- pIC50 [4]: 6.22
- responders at 30 mg/kg (DBA/2 mice; 0.25 h): 20%
- responders at 30 mg/kg (DBA/2 mice; 0.75 h): 0%

Compound: CC(C)C[C@H](NC(=S)Nc1ccc(C(C)(C)C)cc1)C(=O)N[C@@H](Cc1ccc(OCc2ccccc2)cc1)C(=O)OC(C)(C)C (relative stereo) [Example 44, [S-(R*,R*)]-3-(4-Benzyloxy-phenyl)-2-{2-[3-(4-tert-butyl-phenyl)-thioureido]-4-methyl-pentanoylamino}-propionic acid, tert-butyl ester]
- Inhibition of Calcium Flux in IMR-32 Cells % Inhibition at 1 μM [1]: 28%
- Inhibition of Calcium Flux in IMR-32 Cells % Inhibition at 10 μM [1]: 71%
- Number of Mice Protected from Tonic Convulsions (DBA/2 mice; [5]): 0/5

Compound: CC(C)C[C@H](NC(=O)N1CCCCCC1)C(=O)N[C@@H](Cc1ccc(OCc2ccccc2)cc1)C(=O)NC1CCN(Cc2ccccc2)C1 (stereo in doubt) [Example 183, Azepane-1-carboxylic acid {(S)-1-[(S)-2-(4-benzyloxy-phenyl)-1-[1-benzyl-(S)-pyrrolidin-3-ylcarbamoyl]-ethylcarbamoyl]-3-methyl-butyl}-amide]
- pIC50 [1]: 6.52
- pIC50 [4]: 6.66
- responders at 30 mg/kg (DBA/2 mice; 0.25 h): 100%
- Dead mice (remark beside the protection count) (DBA/2 mice; mouse, in vivo): dead

Compound: CC(C)C[C@H](NS(=O)(=O)c1ccc(C(C)(C)C)cc1)C(=O)N[C@@H](Cc1ccc(OCc2ccccc2)cc1)C(=O)OC(C)(C)C [Example 36, [S-(R*,R*)]-3-(4-Benzyloxy-phenyl)-2(S)-[2(S)-(4-tert-butyl-benzenesulfonylamino)-4-methyl-pentanoylamino]-propionic acid tert-butyl ester]
- inhibition at 1 µM [1]: 71%
- inhibition at 10 µM [1]: 86%
- pIC50 [1]: 6.77
- pIC50 [4]: 5.52
- Inhibition of K+ Current, % Inhibition at 10 μM [2]: 92%
- Inhibition of Na+ Current, % Inhibition at 10 μM [3]: 91%
- melting point: 142 to 143 °C
